SMILES strings stand for the structures. Read-outs that look alike come from different tables or passages of the source.

We go through twelve compounds from patent publication USRE50082E1, “(5,6-dihydro)pyrimido[4,5-e]indolizines” (NETHERLANDS TRANSLATIONAL RESEARCH CENTER B.V., priority 2014, dated 2024).

One assay relates to MOLT-4 cancer cell line. As to the kind of experiment: Cell proliferation assay, MOLT-4 cancer cell line (ATPlite).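 Further: luminescence read-out, percent growth versus compound-free DMSO wells as maximum growth, start-of-incubation signal separating growth from cell death, IC50 from logistic curve fit.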 It is filed as cell-based. The following applies: Homo sapiens. (In general: ATP-based viability assays read luminescence as a measure of living cells.)
Another assay has as its target T1, Aurora A (Homo sapiens, UniProt O14965).
T1 construct: full-length Aurora A enzyme (Carna Biosciences, cat. no. 05-101); purchased Carna Biosciences 05-101
T1 sequence (O14965 1-403): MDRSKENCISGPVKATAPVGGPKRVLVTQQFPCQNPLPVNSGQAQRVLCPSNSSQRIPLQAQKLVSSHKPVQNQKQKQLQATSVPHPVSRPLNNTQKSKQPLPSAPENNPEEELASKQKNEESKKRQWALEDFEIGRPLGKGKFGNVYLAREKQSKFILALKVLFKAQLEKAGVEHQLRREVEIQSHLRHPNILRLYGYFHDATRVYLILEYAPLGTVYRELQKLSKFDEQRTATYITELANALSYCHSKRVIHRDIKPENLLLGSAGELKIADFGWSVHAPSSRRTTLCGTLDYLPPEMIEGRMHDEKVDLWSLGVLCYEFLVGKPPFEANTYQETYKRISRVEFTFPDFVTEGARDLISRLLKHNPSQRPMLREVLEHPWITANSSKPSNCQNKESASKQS
The experiment in a line: Biochemical Aurora A kinase assay (LANCE Ultra TR-FRET). Conditions: for AurA Selectivity: IC50 AurA/IC50 TTK (biochemical assays); for IC50: full-length Aurora A, 2 μM ATP.

Assay [1] addresses Polo-like kinase 1 (PLK1) (Homo sapiens, UniProt P53350). The experiment in a line: Biochemical Polo-like kinase 1 kinase assay (LANCE Ultra TR-FRET). The following applies: for PLK1 Selectivity: IC50 PLK1/IC50 TTK (biochemical assays). (TR-FRET usually uses a lanthanide donor and a delayed reading to cut background.)
Description: To determine the inhibitory activity of the compounds on Polo-like kinase 1 (PLK1), the LANCE® Ultra TR-FRET assay (Perkin Elmer) was used. […] After 4 hours, the reaction was stopped by the addition of 5 μl 100 mM EDTA. […] Time-resolved fluorescence was measured on an Envision multilabel reader (Perkin Elmer, Waltham, Mass. USA). IC50 were calculated using XLfit™5 software (ID Business Solutions, Ltd., Surrey, U.K.).
In another assay the target is T2, Aurora C (Homo sapiens, UniProt Q9UQB9).
T2 construct: full-length Aurora C enzyme (Carna Biosciences, cat. no. 05-103); purchased Carna Biosciences 05-103
T2 sequence (Q9UQB9 1-309): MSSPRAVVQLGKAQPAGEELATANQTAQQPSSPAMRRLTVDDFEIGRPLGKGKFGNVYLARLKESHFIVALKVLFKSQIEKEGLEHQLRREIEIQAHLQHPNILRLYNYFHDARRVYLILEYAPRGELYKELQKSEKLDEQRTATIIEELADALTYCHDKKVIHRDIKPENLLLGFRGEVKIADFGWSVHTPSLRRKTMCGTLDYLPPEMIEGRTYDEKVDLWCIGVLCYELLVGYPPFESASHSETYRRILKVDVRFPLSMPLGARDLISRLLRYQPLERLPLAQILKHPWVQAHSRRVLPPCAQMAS
The experiment in a line: Biochemical Aurora C kinase assay (LANCE Ultra TR-FRET). The following applies: for AurC Selectivity: IC50 AurC/IC50 TTK (biochemical assays); for IC50: full-length Aurora C, 5 μM ATP.

Another assay concerns A375. The following applies: mouse xenograft model; cited from earlier work.
For the next assay, the system named is A2780. Conditions: mouse xenograft model; cited from earlier work.
Another assay concerns human cancer cell lines. The following applies: Colombo et al.; read-out: IC50 proliferation of cancer cell lines from different tumor origin; cited from earlier work.
Assay [2] has as its system HeLa-Matu cervical tumor cell. The following applies: cited from earlier work.
The mark [3] stands for this setting: MOLT-4, worded 'TTK cellular assay', read-out: IC50 in the TTK cellular assay.
Where [4] appears, read: MOLT-4, 72 hours incubation, ATPlite 1Step, read-out: IC50 MOLT-4 cell proliferation.

Chain of Polo-like kinase 1 (PLK1) (P53350 whole entry): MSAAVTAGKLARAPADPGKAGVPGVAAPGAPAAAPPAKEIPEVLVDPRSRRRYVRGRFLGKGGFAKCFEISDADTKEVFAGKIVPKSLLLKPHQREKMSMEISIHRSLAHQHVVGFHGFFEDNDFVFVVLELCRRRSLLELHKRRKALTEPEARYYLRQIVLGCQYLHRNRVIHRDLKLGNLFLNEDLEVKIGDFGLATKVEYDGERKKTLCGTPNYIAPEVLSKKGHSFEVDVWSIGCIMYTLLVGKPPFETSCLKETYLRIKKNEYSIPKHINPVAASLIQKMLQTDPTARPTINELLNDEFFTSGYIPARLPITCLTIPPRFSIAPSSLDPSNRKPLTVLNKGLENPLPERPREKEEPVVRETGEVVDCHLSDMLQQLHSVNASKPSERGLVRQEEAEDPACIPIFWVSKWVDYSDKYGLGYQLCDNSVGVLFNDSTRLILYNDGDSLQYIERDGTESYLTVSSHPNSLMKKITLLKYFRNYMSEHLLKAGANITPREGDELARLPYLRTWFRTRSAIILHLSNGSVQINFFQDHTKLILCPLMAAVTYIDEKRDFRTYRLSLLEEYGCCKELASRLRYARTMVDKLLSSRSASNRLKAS
Description for Aurora A: To determine the inhibitory activity of the compounds on Aurora A, the LANCE® Ultra TR-FRET assay (Perkin Elmer) was used. […] After 2 hours, the reaction was stopped by the addition of 5 μl 100 mM EDTA. […] Time-resolved fluorescence was measured on an Envision multilabel reader (Perkin Elmer, Waltham, Mass., USA). IC50 were calculated using XLfit™5 software (ID Business Solutions, Ltd., Surrey, U.K.).
Description for Aurora C: To determine the inhibitory activity of the compounds on Aurora C, the LANCE® Ultra TR-FRET assay (Perkin Elmer) was used. […] After pre-incubation of 1 hour in the dark at room temperature, ULightTM-labeled PLK([MUT]) substrate peptide (Perkin Elmer, cat. no. TRF-0110) and ATP were added, to start the reaction. […] After 3 hours, the reaction was stopped by the addition of 5 μl 100 mM EDTA. […] Time-resolved fluorescence was measured on an Envision multilabel reader (Perkin Elmer, Waltham, Mass., USA). IC50 were calculated using XLfitTM5 software (ID Business Solutions, Ltd., Surrey, U.K.).
Description for MOLT-4 cancer cell line: 5 μL of compound solution was added and the plates were incubated for an additional 72 hours after which 25 μL of ATPlite 1Step™ (PerkinElmer, Groningen, The Netherlands) solution was added to each well. Luminescence was recorded on an Envision multimode reader. The cell signal at the start of incubation was recorded separately in order to distinguish between cell population growth and cell death. In addition, maximum growth was determined by incubation of a duplicate without compound in the presence of 0.4% DMSO. Percentage growth was used as the main y-axis signal. IC50s were fitted by non-linear regression using IDBS XLfit™5 using a 4-parameter logistic curve, yielding a maximum signal, minimum signal, hill-parameter and IC50.

On to `CCOCCOCCn1nc(CC)c(NC(=O)c2ccn3c2CCc2cnc(Nc4ccc(N5CCNCC5)cc4OC)nc2-3)c1CC` [Example 151, N-[1-[2-(2-ethoxyethoxy)ethyl]-3,5-diethyl-pyrazol-4-yl]-2-(2-methoxy-4-piperazin-1-yl-anilino)-5,6-dihydropyrimido[4,5-e]indolizine-7-carboxamide], for which the IC50 in the assay on MOLT-4 cancer cell line (setting [3]) was less than 50 nM. For the same compound, at Aurora A, the “AurA Selectivity” value is reported as more than 100 and the IC50 was not below 100 nM. Further, in assay [1], the IC50 is not below 250 nM and the “PLK1 Selectivity” value is more than 500. Besides, at Aurora C, the “AurC Selectivity” value was more than 500 and the IC50 is not below 100 nM.

With `COCCOCCOCCn1nc(C)c(NC(=O)c2ccn3c2CCc2cnc(Nc4ccc(-c5c(C)nn(C)c5C)cc4OC)nc2-3)c1C` [Example 160, N-[1-[2-[2-(2-methoxyethoxy)ethoxy]ethyl]-3,5-dimethyl-pyrazol-4-yl]-2-[2-methoxy-4-(1,3,5-trimethylpyrazol-4-yl)anilino]-5,6-dihydropyrimido[4,5-e]indolizine-7-carboxamide], the IC50 in the assay with MOLT-4 cancer cell line (MOLT-4, read-out: IC50 in the TTK cellular assay) is less than 50 nM; against Aurora A, not below 100 nM; in assay [1], not below 250 nM; on Aurora C it was not below 100 nM.

`CCNCC(=O)N1CCN(c2ccc(Nc3ncc4c(n3)-n3ccc(C(=O)Nc5c(CC)nn(CCOCCOC)c5CC)c3CC4)c(OC)c2)CC1` [Example 158, N-[3,5-diethyl-1-[2-(2-methoxyethoxy)ethyl]pyrazol-4-yl]-2-[4-[4-[2-(ethylamino)acetyl]piperazin-1-yl]-2-methoxy-anilino]-5,6-dihydropyrimido[4,5-e]indolizine-7-carboxamide]: the IC50 was less than 50 nM in the assay with MOLT-4 cancer cell line (setting [3]), not below 100 nM at Aurora A, not below 250 nM in assay [1] and not below 100 nM on Aurora C. Also, the “AurA Selectivity” value at Aurora A was more than 200. In addition, the “PLK1 Selectivity” value in assay [1] is reported as more than 500. In addition, the “AurC Selectivity” value on Aurora C is more than 500.

With `CCOCCOCCn1nc(CC)c(NC(=O)c2ccn3c2CCc2cnc(Nc4ccc(N5CCN(C)CC5)cc4OC)nc2-3)c1CC` [Example 150, N-[1-[2-(2-ethoxyethoxy)ethyl]-3,5-diethyl-pyrazol-4-yl]-2-[2-methoxy-4-(4-methylpiperazin-1-yl)anilino]-5,6-dihydropyrimido[4,5-e]indolizine-7-carboxamide], the IC50 was less than 50 nM with MOLT-4 cancer cell line (setting [3]), not below 100 nM against Aurora A, not below 250 nM in assay [1] and not below 100 nM against Aurora C. The “AurA Selectivity” value at Aurora A is reported as more than 200. Further, the “PLK1 Selectivity” value in assay [1] is more than 500. Further, the “AurC Selectivity” value on Aurora C is more than 500.

With `CCNCC(=O)N1CCN(c2ccc(Nc3ncc4c(n3)-n3ccc(C(=O)Nc5c(C)nn(CCOCCOCCOC)c5C)c3CC4)c(OC)c2)CC1` [Example 157, 2-[4-[4-[2-(Ethylamino)acetyl]piperazin-1-yl]-2-methoxy-anilino]-N-[1-[2-[2-(2-methoxyethoxy)ethoxy]ethyl]-3,5-dimethyl-pyrazol-4-yl]-5,6-dihydropyrimido[4,5-e]indolizine-7-carboxamide], the IC50 was less than 50 nM with MOLT-4 cancer cell line (setting [3]), not below 100 nM against Aurora A, not below 250 nM in assay [1] and not below 100 nM on Aurora C. On Aurora A, the “AurA Selectivity” value was more than 200. Also, in assay [1], the “PLK1 Selectivity” value was more than 500. In addition, at Aurora C, the “AurC Selectivity” value is more than 500.

For the compound `COCCOCCn1nc(C)c(NC(=O)c2ccn3c2CCc2cnc(Nc4ccc(N5CCN(C)CC5)cc4OC)nc2-3)c1C` [Example 149, N-[1-[2-(2-methoxyethoxy)ethyl]-3,5-dimethyl-pyrazol-4-yl]-2-[2-methoxy-4-(4-methylpiperazin-1-yl)anilino]-b,6-dihydropyrimido[4,5-e]indolizine-7-carboxamide], the IC50 is less than 50 nM with MOLT-4 cancer cell line (setting [3]), not below 100 nM against Aurora A, not below 250 nM in assay [1] and not below 100 nM against Aurora C. Moreover, the “AurA Selectivity” value at Aurora A is more than 200. In assay [1], the “PLK1 Selectivity” value is reported as more than 500. The “AurC Selectivity” value on Aurora C is on record as more than 500.

In the case of `COCCOCCOCCn1nc(C)c(NC(=O)c2ccn3c2CCc2cnc(Nc4ccc(N5CCNCC5)cc4OC)nc2-3)c1C` [Example 156, N-[1-[2-[2-(2-methoxyethoxy)ethoxy]ethyl]-3,5-dimethyl-pyrazol-4-yl]-2-(2-methoxy-4-piperazin-1-yl-anilino)-5,6-dihydropyrimido[4,5-e]indolizine-7-carboxamide], the IC50 in the assay with MOLT-4 cancer cell line (setting [3]) is less than 50 nM. For the same compound, at Aurora A, the “AurA Selectivity” value is more than 200 and the IC50 is not below 100 nM. Further, in assay [1], the IC50 was not below 250 nM and the “PLK1 Selectivity” value is reported as more than 500. Further, on Aurora C, the “AurC Selectivity” value is more than 500 and the IC50 was not below 100 nM.

Take `CCc1cccc(CC)c1NC(=O)c1nn(C)c2c1CCc1cnc(Nc3ccc(C(=O)NC4CCN(C)CC4)cc3OC(F)(F)F)nc1-2` [NMS-P715]: in the assay on A375, the “Tumor growth, A375 xenograft” value was “inhibited tumor growth”. Besides, in the assay with A2780, the “Tumor growth, A2780 xenograft” value is “inhibited tumor growth”. Besides, the IC50 with human cancer cell lines was not below 1000 nM.

For the compound `COCCn1nc(C)c(NC(=O)c2ccn3c2CCc2cnc(Nc4ccc(N5CCN(C(=O)C6CN(C)C6)CC5)cc4OC)nc2-3)c1C` [Example 155, N-[1-(2-methoxyethyl)-3,5-dimethyl-pyrazol-4-yl]-2-[2-methoxy-4-[4-(1-methylazetidine-3-carbonyl)piperazin-1-yl]anilino]-5,6-dihydropyrimido[4,5-e]indolizine-7-carboxamide], in the assay with MOLT-4 cancer cell line (setting [3]), the IC50 is less than 50 nM. Moreover, at Aurora A, the “AurA Selectivity” value is recorded as more than 200 and the IC50 was not below 100 nM. Moreover, in assay [1], the IC50 is not below 250 nM and the “PLK1 Selectivity” value was more than 500. Further, at Aurora C, the “AurC Selectivity” value is reported as more than 500 and the IC50 was not below 100 nM.

Turning to `CCc1n[nH]c(CC)c1NC(=O)c1ccn2c1CCc1cnc(Nc3ccc(N4CCN(C)CC4)cc3OC(F)F)nc1-2` [Example 33, N-(3,5-diethyl-1H-pyrazol-4-yl)-2-[2-(difluoromethoxy)-4-(4-methylpiperazin-1-yl)anilino]-5,6-dihydropyrimido[4,5-e]indolizine-7-carboxamide], the IC50 in the assay with MOLT-4 cancer cell line (setting [4]) is less than 50 nM. In addition, at Aurora A, the “AurA Selectivity” value is given as more than 500 and the IC50 was not below 100 nM. Moreover, in assay [1], the IC50 is not below 250 nM and the “PLK1 Selectivity” value is reported as more than 500. Further, at Aurora C, the “AurC Selectivity” value is listed as more than 500 and the IC50 is not below 100 nM.

With `COCCOCCOCCn1nc(C)c(NC(=O)c2ccn3c2CCc2cnc(Nc4ccc(N5CCN(C)CC5)cc4OC)nc2-3)c1C` [Example 138, N-[1-[2-[2-(2-methoxyethoxy)ethoxy]ethyl]-3,5-dimethyl-pyrrazol-4-yl]-2-[2-methoxy-4-(4-methylpiperazin-1-yl)anilino]-5,6-dihydropyrimido[4,5-e]indolizine-7-carboxamide], the IC50 in the assay on MOLT-4 cancer cell line (setting [4]) is less than 50 nM. Moreover, on Aurora A, the “AurA Selectivity” value is reported as more than 500 and the IC50 is not below 100 nM. Also, in assay [1], the IC50 is not below 250 nM and the “PLK1 Selectivity” value was more than 500. Also, on Aurora C, the “AurC Selectivity” value is reported as more than 500 and the IC50 is not below 100 nM.

As for `CC(C)CNc1nccn2c(-c3ccc(C(=O)NC4CC4)cc3)cnc12` [Mps-BAY2b], the “Efficacy of paclitaxel in combination” value in assay [2] (HeLa-Matu mouse xenograft model, with paclitaxel) is given as “increased the efficacy of paclitaxel”. Further, in assay [2] (mouse xenograft model), the “HeLa-Matu cervical tumor cell growth” value was “inhibit HeLa-Matu cervical tumor cell growth”.
